Like-named read-outs stand apart in the source and are kept apart here.
How the values were obtained:
5FW LecA [1] = target: T1, 5FW LecA (Pseudomonas aeruginosa, UniProt Q05097); test: PrOF NMR titration of ligands to 5FW LecA (W42 peak intensity); assay type: binding
T1 construct: made in house; host or cells: Escherichia coli BL21 (DE3), plasmid pET25pa1l, grown with 5-fluoroindole
Description: All experiments were conducted on Bruker Ascend™700 (AvanceIII HD) spectrometer equipped with a 5 mm TCI700 CryoProbe™ in 3 mm tubes (Norell S-3-800-7) with following parameters: time domain of 1972, relaxation delay 1 s, acquisition time of 0.15 s, spectral width of 10 p.p.m. and 1024 scans resulting in measurement time of 20 minutes.
The decreasing intensity of the unbound W42 in 5FW LecA was followed to determine Kd values of ligands. Here, we used these values to normalize the changes in W42 peak intensities (Inormalized) following the equation (1) resulting in values plotted on Y-axis.(1) where I0 was unbound W42 in the reference spectrum of protein only, Imeasured was unbound W42 peak of protein with a ligand. The Kd values were calculated according to the one-site-binding model in GraphPad Prism 8 (GraphPad Software Inc., San Diego, CA) from three independent titrations.

LecA [2] = target: T2, LecA (Pseudomonas aeruginosa, UniProt Q05097); test: Isothermal titration calorimetry of Ca2+ to apo LecA; assay type: binding; conditions: unlabeled apo LecA, TBS pH 7.4, 25°C; read-out: Kd (ITC)
T2 construct: made in house; host or cells: Escherichia coli BL21 (DE3) (inferred from the yield comparison; no protocol of its own is printed for the unlabelled protein)
Description: ITC was performed on a Microcal ITC200 (General Electric) at 25°C. Calcium ions were removed by extensive dialysis against 1 mM EDTA pH 7.4 (×4) followed by 150 mM NaCl (×4) and distilled water. The protein solution was lyophilized and the solid protein stored at −20°C. A solution of calcium chloride in TBS (20 mM Tris, 137 mM NaCl, 2.6 mM KCl at pH 7.4) was titrated into a calcium-free LecA solution in the same buffer. The data were analyzed according to the one-site-binding model using Microcal Origin software. Four independent titrations were performed using CaCl2 and LecA between 2 and 3 mM and 170 and 200 μM, respectively.

LecA [3] = target: T2, LecA; test: Competitive binding fluorescence polarization assay with LecA
Description: (§1) The competitive binding assay was performed as reported previously ([Joachim et al. 2016]). In total, 10 μL of LecA (40 μM) and meta-linked fluorescein-conjugate of phenyl-galactopyranoside (20 nM) in TBS pH 7.4 supplemented with 1 mM CaCl2 (TBS/Ca^2+) and 10 μL of compound-dilution series (8 mM to 62 μM, 8% DMSO) in TBS/Ca^2+ buffer were mixed in a 384-well plate (Greiner Bio-One, Germany) in three technical replicates. The sealed plate was centrifuged at 300 g for 1 min and incubated at room temperature with shaking. […] Polarization was calculated and the data were analyzed according to the four-parameter variable slope model (MARS Data Analysis Software, BMG Labtech GmbH, Germany), the top and bottom plateaus were determined from the control Me-α-D-Gal and data were reanalyzed with these values fixed.

5FW LecA [4] = target: T1, 5FW LecA; test: Competitive binding fluorescence polarization assay with 5FW LecA
Description: as §1

LecA [5] = target: T2, LecA; conditions: ref Cioci et al. 2003; cited from earlier work
LecA [6] = target: T2, LecA; conditions: cited from earlier work; for affinity improvement compared to galactose: reported Kd values, ref Kadam, et al. 2011, Rodrigue, et al. 2013

T2 sequence (Q05097 whole entry): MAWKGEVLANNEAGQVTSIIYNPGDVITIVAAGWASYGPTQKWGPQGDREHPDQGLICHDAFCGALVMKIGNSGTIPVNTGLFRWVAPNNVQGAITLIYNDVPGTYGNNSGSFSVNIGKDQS
T1 sequence (Q05097 2-122): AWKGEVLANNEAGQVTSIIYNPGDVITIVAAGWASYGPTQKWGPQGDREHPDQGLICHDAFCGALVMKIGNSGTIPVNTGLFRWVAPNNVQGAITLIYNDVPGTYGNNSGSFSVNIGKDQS

## [Ca+2] [Ca^2+, calcium (II) ion]
5FW LecA [1]; 100 μM apo 5FW LecA, MES pH 6, 310 K, one-site-binding model, three independent titrations, listed as Ca2+, read-out: Kd (PrOF NMR, Ca2+ titration)
  Kd: 47 ± 8 µM
5FW LecA [1]; 100 μM apo 5FW LecA, MES pH 6, 310 K, one-site-binding model, three independent titrations, read-out: Kd (PrOF NMR, Ca2+ titration)
  Kd: 478 µM
LecA [2]
  Kd: 60 ± 20 µM

## O=C[C@H](O)[C@@H](O)[C@@H](O)[C@H](O)CO [D-Gal, D-galactose]
LecA [3]
  IC50: 330 ± 40 µM
5FW LecA [4]
  IC50: 317 µM
5FW LecA [1]
  Kd: 360 µM
LecA [5]
  Kd: 29 µM

## CC(=O)N[C@H]1C(O)O[C@H](CO)[C@H](O)[C@@H]1O (stereo partly drawn) [D-GalNAc, N-acetyl D-galactosamine]
LecA [3]
  IC50: 1230 ± 200 µM
5FW LecA [4]
  IC50: 1990 µM
5FW LecA [4]; 5FW LecA
  IC50 (FP-based assay) higher compared with Kd from PrOF NMR: 3 fold
5FW LecA [1]
  Kd: 780 ± 97 µM

## CC(C)C[C@H](NC(=O)[C@@H]1CCCN1C(=O)[C@H](CCCCN)NC(=O)c1ccc(O[C@@H]2O[C@H](CO)[C@H](O)[C@H](O)[C@H]2O)cc1)C(N)=O [GalAG0]
LecA [6]; ref Kadam et al. 2011, Kadam et al. 2013, Rodrigue et al. 2013
  Kd: 4.2 µM

## OC[C@H]1O[C@@H](Oc2ccccc2)[C@H](O)[C@@H](O)[C@H]1O [Ph-β-D-Gal, phenyl-β-D-galactopyranoside]
5FW LecA [1]; 100 μM holo 5FW LecA, TBS pH 7.8, 310 K, one-site-binding model, three independent titrations, read-out: Kd (PrOF NMR)
  Kd: 166 ± 42 µM

## OC[C@H]1O[C@@H](Sc2ccc3ccccc3c2)[C@H](O)[C@@H](O)[C@H]1O [naphthyl β-thio-D-galactoside]
LecA [6]; ref Rodrigue et al. 2013
  Kd: 6.3 µM
LecA [6]
  affinity improvement compared to galactose: 6 to 7 fold

## O=[N+]([O-])c1ccc(O[C@@H]2O[C@H](CO)[C@H](O)[C@H](O)[C@H]2O)cc1 [pNPGal, p-nitrophenyl β-D-galactoside]
LecA [6]
  affinity improvement compared to galactose: 6 to 7 fold
5FW LecA [1]
  Kd: 54 ± 6 µM
5FW LecA [1]; Kd in PrOF NMR, pNPGal vs D-Gal
  improved binding affinity compared to D-Gal: 6 fold

Reference: publication PMC7874386, “Protein-observed 19F NMR of LecA from Pseudomonas aeruginosa” (Glycobiology, 2020)
